Where a name gives a salt, the structure may show the parent alone.
melting point [°C] | Structure (SMILES)
207 to 208 | CN(Cc1ccc(/C=C/C(=O)Nc2ccc(-c3ccc(Cl)cc3)cc2)cc1)C1CCNCC1 (as salt: acetate) [Example 5.36, (E)-N-(4′-chlorobiphenyl-4-yl)-3-{4[(methylpiperidin-4-ylamino)methyl]phenyl}acrylamide×trifluoroacetic acid acetate]
112 to 116 | CCN(CC)CCCOc1ccc(NC(=O)C#Cc2ccc(C(F)(F)F)cc2Cl)cc1Cl (as salt: formate) [Example 4.18, 3-(2-chloro-4-trifluoromethylphenyl)propynoic acid-[3-chloro-4-(3-diethylaminopropoxy)phenyl]amide formate]
92 to 95 | COc1cc(NC(=O)C#Cc2ccc(C(F)(F)F)cc2Cl)ccc1OCCN1CCc2ccccc2C1 (as salt: formate) [Example 4.275, 3-(2-chloro-4-trifluoromethylphenyl)propynoic acid-{4-[2-(3,4-dihydro-1H-isoquinolin-2-yl)ethoxy]-3-methoxyphenyl}amide formate]
188 to 191 | CCN(CC)CCOc1ccc(NC(=O)C#Cc2c(Cl)cc(Cl)cc2Cl)cc1Cl (as salt: hydrochloride) [Example 4.5, 3-(2,4,6-trichlorophenyl)propynoic acid-[3-chloro-4-(2-diethylaminoethoxy)phenyl]amide hydrochloride]
205 to 207 | CCN(CC)CCOc1ccc(NC(=O)C#Cc2ccc(Cl)cc2Cl)cc1OC (as salt: hydrochloride) [Example 4.7, 3-(2,4-dichlorophenyl)propynoic acid-[3-methoxy-4-(2-diethylaminoethoxy)phenyl]amide hydrochloride]
128 to 130 | CCN(CC)CCOc1ccc(NC(=O)C#Cc2ccc(Cl)cc2Cl)c(Cl)c1 (as salt: hydrochloride) [Example 4.8, 3-(2,4-dichlorophenyl)propynoic acid-[2-chloro-4-(2-diethylaminoethoxy)phenyl]amide]
173 to 176 | COc1cc(NC(=O)C#Cc2ccc(C(F)(F)F)cc2Cl)ccc1OCCN(C)CC1CC1 (as salt: hydrochloride) [Example 4.278, 3-(2-chloro-4-trifluoromethylphenyl)propynoic acid-{4-[2-(cyclopropylmethylmethylamino)ethoxy]-3-methoxyphenyl}amide hydrochloride]
185 to 188 | CCCN(CCOc1ccc(NC(=O)C#Cc2ccc(C(F)(F)F)cc2Cl)cc1OC)CC1CC1 (as salt: hydrochloride) [Example 4.279, 3-(2-chloro-4-trifluoromethylphenyl)propynoic acid-{4-[2-(cyclopropylmethylpropylamino)ethoxy]-3-methoxyphenyl}amide hydrochloride]
208 | O=C(CCc1ccc(CNC2CC2)cc1)Nc1ccc(-c2ccc(Cl)cc2)cc1 (as salt: trifluoroacetate) [Example 6.43, N-(4′-chlorobiphenyl-4-yl)-3-(4-cyclopropylaminomethylphenyl)propionamide trifluoroacetate]

More lines, now with the values behind:

Structure (SMILES) | melting point [°C]
CCN(CC)CCOc1ccc(NC(=O)C#Cc2ccc(-c3ccc(Cl)cc3)cc2)cc1Cl.Cl | 226 to 233
CCN(CC)CCOc1ccc(NC(=O)C#Cc2ccc(-c3ccccc3)cc2Cl)cc1Cl (as salt: hydrochloride) [Example 3.32, 3-(3-chlorobiphenyl-4-yl)propynoic acid-[3-chloro-4-(2-diethylaminoethoxy)phenyl]amide hydrochloride] | 195 to 200
O=C(C#Cc1ccc(-c2ccccc2)cc1Cl)Nc1ccc(CN2CCCCC2)cc1 (as salt: hydrochloride) [Example 3.33, 3-(3-chlorobiphenyl-4-yl)propynoic acid-(4-piperidin-1-ylmethylphenyl)amide hydrochloride] | 260 to 265
CCN(CC)CCc1ccc(NC(=O)C#Cc2ccc(Cl)cc2Cl)cc1 (as salt: hydrochloride) [Example 3.34, 3-(2,4-dichlorophenyl)propynoic acid-[4-(2-diethylaminoethyl)phenyl]amide hydrochloride] | 204 to 208
O=C(C#Cc1ccc(C(F)(F)F)cc1Cl)Nc1ccc(CN2CCCCC2)cc1 (as salt: hydrochloride) [Example 3.41, 3-(2-chloro-4-trifluoromethylphenyl)propynoic acid(4-piperidin-1-ylmethylphenyl)amide hydrochloride] | 193 to 195
CC1CCN(CCOc2ccc(NC(=O)C#Cc3ccc(C(F)(F)F)cc3Cl)cc2)CC1 (as salt: hydrochloride) [Example 3.45, 3-(2-chloro-4-trifluoromethylphenyl)propynoic acid {4-[2-(4-methylpiperidin-1-yl)ethoxy]phenyl}amide hydrochloride] | 240 to 245
CN(C(=O)C#Cc1ccc(CN2CCC(N3CCCC3)CC2)cc1)c1ccc(-c2ccc(Cl)cc2)cc1 (as salt: trifluoroacetate) [Example 1.24, 3-[4-(4-pyrrolidin-1-ylpiperidin-1-ylmethyl)phenyl]propynoic acid-(4′-chlorobiphenyl-4-yl)methylamideditrifluoroacetate] | 161 to 164
NC1(c2ccc(C#CC(=O)Nc3ccc(-c4ccc(Cl)cc4)cc3)cc2)CC1 (as salt: trifluoroacetate) [Example 1.422, 3-[4-(1-aminocyclopropyl)phenyl]propynoic acid-(4′-chlorobiphenyl-4-yl)amide trifluoroacetate] | 160 to 164
CNC1(c2ccc(C#CC(=O)Nc3ccc(-c4ccc(Cl)cc4)cc3)cc2)CC1 (as salt: trifluoroacetate) [Example 1.423, 3-[4-(1-methylaminocyclopropyl)phenyl]propynoic acid-(4′-chlorobiphenyl-4-yl)amide trifluoroacetate] | 217.3
CC#Cc1ccc(NC(=O)C#Cc2ccc(CN3CCCCC3)cc2)cc1 [Example 1.2, 3-(4-piperidin-1-ylemthylphenyl)propynoic acid-(4-prop-1-ynylphenyl)amide] | 180 to 181
COc1ccc(-c2ccc(NC(=O)C#Cc3ccc(CN4CCCCC4)cc3)cc2)cc1 [Example 1.8, 3-(4-piperidin-1-ylmethylphenyl)propynoic acid-(4′-methoxybiphenyl-4-yl)amide] | 170
COc1ccc(-c2ccc(NC(=O)C#Cc3ccc(CN4CCC(Nc5ccccn5)CC4)cc3)cc2)cc1 [Example 1.11, 3-{4-[4-(pyridin-2-ylamino)piperidin-1-ylmethyl]phenyl}propynoic acid-(4′-methoxybiphenyl-4-yl)amide] | 196 to 197
O=C(C#Cc1ccc(CN2CCCC2)cc1)Nc1ccc(-c2ccc(Cl)cc2)cc1F [Example 1.17, 3-(4-pyrrolidin-1-ylmethylphenyl)propynoic acid-(4′-chloro-3-fluorobiphenyl-4-yl)amide] | 136
O=C(C#Cc1ccc(CN2CCC[C@@H]2CO)cc1)Nc1ccc(-c2ccc(Cl)cc2)cc1F [Example 1.20, 3-[4-((R)-2-hydroxymethylpyrrolidin-1-ylmethyl)phenyl]propynoic acid-(4′-chloro-3-fluorobiphenyl-4-yl)amide] | 146 to 148

Source: patent publication US7592373B2 (Boehringer Ingelheim International GmbH, priority 2003, dated 2009)
